How the values were obtained:
[1] = system: SKBR3 cells overexpressing ADCK3-FLAG; experiment: Ferroptosis induction in SKBR3 cells overexpressing ADCK3-FLAG (CellTiter-Glo); type: cell-based; conditions: RSL3 10 or 20 nM, FIN56 78 or 156 nM, 48 h
Description: Viability was measured with CellTiter-Glo®.
ADCK3-FLAG was stably overexpressed in SKBR3 cells through retroviral infection. First, proper localization of the overexpressed protein to the mitochondria was validated by fluorescent microscopy. Similarly to the localization pattern of endogenous ADCK3 to the mitochondria, overexpressed ADCK3-FLAG co-localized with a MitoTracker fluorescent probe (FIG. 5A).

[2] = system: breast cancer cell lines (high-ADCK3 vs low-ADCK3); experiment: Breast cancer cell line panel viability with ferroptosis inducers (CellTiter-Glo); type: cell-based; conditions: 2-fold dilution series, 72 hours
Description: Breast cancer cell lines were treated with ferroptosis inducers FIN56 (FIG. 2D) or RSL3 (FIG. 2E) in 2-fold dilution series for 72 hours. Cell viability was measured with CellTiter-Glo®. Ferroptosis-sensitive breast cancer cells are categorized as ‘high-ADCK3’ expressing (orange), while cells that are less sensitive to ferroptosis induction were the ones with ‘low-ADCK3’ (green).
A panel of 10 breast cancer cell lines was selected form the Broad Institute Cancer Cell Line Encyclopedia database (CCLE; https://portals.broadinsitute.org/ccle),based on their ADCK3 copy number and mRNA expression levels, to have a good representation of ADCK3-amplified cells (termed here as ‘high-ADCK3’), as well as a control group expressing normal levels of ADCK3 (termed here as ‘low-ADCK3’; FIG. 2A). To confirm a correlation between high ADCK3 gene/transcript expression and protein expression, ADCK3 levels were measured by western blot (FIG. 2B). Cells were divided into high-ADCK3 (orange in FIGS. 2A-2E) and low-ADCK3 (green in FIGS. 2A-2E) according to the protein expression level. […] High ADCK3 protein levels correlated with high CoQ10 abundance, measured by LC-MS (FIG. 2C). […]

[3] = system: triple-negative breast cancer; conditions: cited from earlier work
[4] = system: ADCK3 knockdown/knockout SKBR3 cells; experiment: Ferroptosis induction in ADCK3 knockdown/knockout SKBR3 cells (CellTiter-Glo); type: cell-based; conditions: for rescue of RSL3-induced death in siRNA ADCK3 knockdown cells: SKBR3, siRNA ADCK3, RSL3 48 h
Description: At 48 h after transfection, cells were treated with RSL3 in 2-fold dilution series for 48 h, in combination with ferrostatin-1 or idebenone. Viability was measured with CellTiter-Glo®. […] Stable CRISPR cells were treated with FIN56 in 2-fold dilution series in combination with ferrostatin-1, for 48 h. Viability was measured with CellTiter-Glo®. […] (grey) cells were treated with RSL3 or FIN56 in 2-fold dilution series in combination with 2 μM ferrostatin-1 for 48 h. Viability was measured with CellTiter-Glo®.

SKBR3 cells [5] = experiment: Cellular lipid-ROS by C11-BODIPY flow cytometry; type: cell-based
Text: (§1) Thus, it was concluded that SGC-GAK-1 induces ferroptosis in ADCK3-amplified cells, perhaps by reducing the levels of ADCK3 and CoQ10.

SKBR3 cells [6] = experiment: SKBR3 cell death / viability on SGC-GAK-1 treatment; type: cell-based
Text: as §1

ADCK3 [7] = experiment: Western blot of ADCK3 protein levels in SKBR3 cells; type: cell-based; conditions: SKBR3, 50 nM SGC-GAK-1, 48 hours
Description: SKBR3 cells were treated with 50 nM SGC-GAK-1 or vehicle, for 48 h, and analyzed by western blot for ADCK3 and GAPDH levels.
as §1

ADCK3 [8] = target: ADCK3 (Homo sapiens, UniProt Q8NI60); conditions: reported, Asquith et al. 2019; cited from earlier work
ADCK3 (Homo sapiens, UniProt Q8NI60), sequence (Q8NI60 163-647): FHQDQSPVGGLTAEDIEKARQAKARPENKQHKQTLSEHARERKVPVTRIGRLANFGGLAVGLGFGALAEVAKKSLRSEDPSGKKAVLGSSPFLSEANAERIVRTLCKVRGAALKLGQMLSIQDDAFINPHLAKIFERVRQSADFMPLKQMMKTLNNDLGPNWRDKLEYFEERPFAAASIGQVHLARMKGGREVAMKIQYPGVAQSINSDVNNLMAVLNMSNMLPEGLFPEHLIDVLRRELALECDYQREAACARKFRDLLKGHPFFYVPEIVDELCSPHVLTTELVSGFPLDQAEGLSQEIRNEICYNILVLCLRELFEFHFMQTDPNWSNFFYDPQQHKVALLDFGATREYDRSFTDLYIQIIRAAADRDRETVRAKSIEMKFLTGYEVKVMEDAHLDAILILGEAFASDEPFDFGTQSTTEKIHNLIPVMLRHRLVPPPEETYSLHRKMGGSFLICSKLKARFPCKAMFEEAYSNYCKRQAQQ

CoQ10 = CoQ10 abundance in SKBR3 cells by LC/MS; type: cell-based; conditions: SKBR3, 50 nM SGC-GAK-1, 48 hours
Text: CoQ10 abundance in SKBR3 cells treated as in FIG. 6A, measured by LC/MS.
as §1

O=S(=O)(NC1CCCCC1)c1ccc2c(c1)C(=NO)c1cc(S(=O)(=O)NC3CCCCC3)ccc1-2 [FIN56]
cytotoxic effect in cells overexpressing ADCK3 compared to control [1]: statistically significant reduction in cytotoxic effect
sensitivity to ferroptosis induction of cells with amplified ADCK3 expression [2]: distinct higher sensitivity

Tecentriq: approved in combination with protein-bound paclitaxel for unresectable triple-negative breast cancer whose tumors express PD-L1
patients who experienced adverse reactions ([3]; in vivo): greater than 20%
median progression-free survival ([3]; with protein-bound paclitaxel, PD-L1 expressing unresectable triple-negative breast cancer): 7.4 months
extension of median progression-free survival ([3]; with protein-bound paclitaxel, from 4.8 to 7.4): 2.6 months

COC(=O)c1ccc([C@@H]2c3[nH]c4ccccc4c3C[C@@H](C(=O)OC)N2C(=O)CCl)cc1 [RSL3]
sensitivity of siRNA ADCK3 knockdown cells to ferroptosis inducer ([4]; SKBR3, siRNA ADCK3 vs non-targeting control, 48 h treatment): increased the sensitivity
cytotoxic effect in cells overexpressing ADCK3 compared to control [1]: statistically significant reduction in cytotoxic effect
sensitivity to ferroptosis induction of cells with amplified ADCK3 expression [2]: distinct higher sensitivity

CCOC(=O)c1ccc(NC2CCCCC2)c(N)c1 [ferrostatin-1]
rescue of SGC-GAK-1-induced increase in cellular lipid-ROS (SKBR3 cells [5]; SKBR3, 2 µM ferrostatin-1): rescued
rescue of death and sensitization in CRISPR/shRNA ADCK3 knockout cells ([4]; SKBR3, RSL3 or FIN56 with ferrostatin-1 (2 µM in shRNA cells)): rescued
rescue of RSL3-induced death in siRNA ADCK3 knockdown cells [4]: rescued
rescue of SGC-GAK-1-induced ferroptotic death (SKBR3 cells [6]; SKBR3, 1 µM ferrostatin-1): rescued

COC1=C(OC)C(=O)C(CCCCCCCCCCO)=C(C)C1=O [idebenone]
rescue of RSL3-induced death in siRNA ADCK3 knockdown cells [4]: rescued

COc1cc(Nc2ccnc3ccc(Br)cc23)cc(OC)c1OC [SGC-GAK-1]
ADCK3 protein levels (ADCK3 [7]): marked reduction in ADCK3 protein levels
lipid-ROS (SKBR3 cells [5]; SKBR3, 50 nM SGC-GAK-1, 48 h, C11-BODIPY): increase in lipid-ROS
inhibitory activity against ADCK3 (ADCK3 [8]): nanomolar inhibitory activity
CoQ10 levels (CoQ10): reduced CoQ10 levels
sensitivity of SKBR3 cells to RSL3-mediated ferroptotic death (SKBR3 cells [6]; SGC-GAK-1 combined with RSL3): further potentiated SKBR3 cells to RSL3-mediated ferroptotic death
cell death induced by SGC-GAK-1 alone (SKBR3 cells [6]; SKBR3 cells, with or without ferrostatin-1): induced cell death that was rescued by the ferroptosis inhibitor ferrostatin-1
